Patent US20040037804A1, “Methods for treatment of asthma” (priority 2002, published 2004)

Tested on: airway smooth muscle (ASM) tissues
Assay: Isometric constrictor responsiveness to acetylcholine in isolated rabbit tracheal ASM rings (organ bath)
Assay type: cell-based
Conditions: control (not cytokine-exposed) ASM, DEX 1 μM, 24 hours
Description: Following general anesthesia with xylazine (10 mg/kg) and ketamine 50 mg/kg), NZW rabbits were sacrificed by air embolism and the tracheae were removed, cleaned of loose connective tissue and epithelium, and divided into ring segments.
Following incubation, the ASM tissue segments were placed in organ baths containing modified Krebs Ringer solution, and aerated with 5% CO2 in oxygen at 37° C. The tissues' isometric cholinergic contractility was subsequently assessed by cumulative administration of acetylcholine (ACh; 10^−10 to 10^−3 M).

C[C@@H]1C[C@H]2[C@@H]3CCC4=CC(=O)C=C[C@]4(C)[C@@]3(F)[C@@H](O)C[C@]2(C)[C@@]1(O)C(=O)CO [DEX, dexamethasone]
effect on constrictor responses to ACh in control ASM: no effect
